Reference: ChEMBL document CHEMBL6134912, “Novel Piperidine Substituted Pyrazolopyrimidine Derivatives as SGK1 Inhibitors for Treating Cardiovascular Diseases” (ACS Med Chem Lett, 2025)
pIC50: −log10 of the molar value.

Molecular target: T1, Serine/threonine-protein kinase Sgk1 (Homo sapiens, UniProt O00141)
T1 sequence (O00141 whole entry): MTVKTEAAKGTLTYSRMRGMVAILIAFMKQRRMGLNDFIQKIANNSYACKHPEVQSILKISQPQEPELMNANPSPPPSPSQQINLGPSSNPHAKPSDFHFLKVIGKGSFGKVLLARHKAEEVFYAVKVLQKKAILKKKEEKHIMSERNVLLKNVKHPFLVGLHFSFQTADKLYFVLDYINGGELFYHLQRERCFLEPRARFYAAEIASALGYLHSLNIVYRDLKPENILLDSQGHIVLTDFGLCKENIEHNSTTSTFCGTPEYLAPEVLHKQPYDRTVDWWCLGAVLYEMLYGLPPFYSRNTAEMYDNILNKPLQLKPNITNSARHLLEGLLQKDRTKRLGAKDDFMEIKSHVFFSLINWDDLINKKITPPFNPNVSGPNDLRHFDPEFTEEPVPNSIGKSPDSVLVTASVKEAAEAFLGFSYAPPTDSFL
Test: Inhibition of GST-tagged human SGK1 using fluorescein labelled ATP-competitive probe by homogeneous time-resolved fluorescence (HTRF) binding assay

SMILES | pIC50
Cc1nc(O[C@H]2CC[C@@H](NC3CCC3)CC2)c(C(=O)N[C@@H]2CCCN(c3nn(-c4ccc(C(N)=O)c(F)c4)c4ncnc(N)c34)C2)s1 | 8.40
CCC(CC)N[C@H]1CC[C@@H](Oc2nc(C)sc2C(=O)N[C@@H]2CCCN(c3nn(-c4ccc(C(N)=O)c(F)c4)c4ncnc(N)c34)C2)CC1 | 8.52
Cc1nc(O[C@H]2CC[C@@H](NC(C)CO)CC2)c(C(=O)N[C@@H]2CCCN(c3nn(-c4ccc(C(N)=O)c(F)c4)c4ncnc(N)c34)C2)s1 (stereo partly specified) | 8.30
Cc1nc(O[C@H]2CC[C@@H](N3CCC3)CC2)c(C(=O)N[C@@H]2CCCN(c3nn(C4=CC(=O)OC4)c4ncnc(N)c34)C2)s1 | 8.30
COc1cc(C(=O)N[C@@H]2CCCN(c3nn(-c4ccc(S(C)(=O)=O)cc4)c4ncnc(N)c34)C2)ccn1 | 8.30
Cc1nc(O[C@H]2CC[C@@H](N(C)C)CC2)c(C(=O)N[C@@H]2CCCN(c3nn(-c4ccc(C(N)=O)c(F)c4)c4ncnc(N)c34)C2)s1 | 8.40
